According to ChEMBL document CHEMBL1201862, “PubChem BioAssay data set” (2004):
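Test compounds were applied to cells in 96-well plates for 48 hours at 5 doses. GI50 = concentration required for 50% inhibition of growth.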 Activity calls are given as the source filed them. Rule as the data show it: active = GI50 up to about 1.1 µM and inactive = higher.

How the values were obtained:
Assay in all cases: inhibition of tumour cell growth, NCI panel, 48 h
MDA-MB-435 = tested on: MDA-MB-435
M14 = tested on: M14
BT-549 = tested on: BT-549
ACHN = tested on: ACHN
OVCAR-3 = tested on: OVCAR-3
SF-295 = tested on: SF-295
CAKI-1 = tested on: CAKI-1
NCI-H522 = tested on: NCI-H522
SF-539 = tested on: SF-539
OVCAR-4 = tested on: OVCAR-4
EKVX = tested on: EKVX
HOP-62 = tested on: HOP-62
SNB-75 = tested on: SNB-75
DU-145 = tested on: DU-145
HCT-116 = tested on: HCT-116
SNB-19 = tested on: SNB-19
OVCAR-8 = tested on: OVCAR-8
OVCAR-5 = tested on: OVCAR-5
RXF 393 = tested on: RXF 393
PC-3 = tested on: PC-3

Measured: GI50

O=C1OC(c2ccccc2)N/C1=C\c1ccc2c(c1)OCO2 (stereo not given)
inactive: MDA-MB-435 > 100 µM | M14 > 74 µM | BT-549 > 100 µM | ACHN > 100 µM | OVCAR-3 79.3 µM | SF-295 > 100 µM | CAKI-1 > 100 µM | NCI-H522 35.6 µM | SF-539 29.4 µM | OVCAR-4 36.7 µM | EKVX > 100 µM | HOP-62 > 56.8 µM | SNB-75 98.9 µM | DU-145 > 100 µM | HCT-116 > 100 µM | SNB-19 > 100 µM | OVCAR-8 43.5 µM | OVCAR-5 > 100 µM | RXF 393 > 100 µM | PC-3 > 100 µM
